Experimental data published in US4933332A, “11-desoxy-17-α-hydroxycorticosterone derivatives” (priority 1988, dated 1990).
Where a name gives a salt, the structure may show the parent alone.

Columns and labels:
mice fibroblasts L-929 = details: effects are reversible; cited from earlier work
cell receptors = details: effects are reversible; cited from earlier work
P-388 = experiment: Antitumor effect on grafted hemoblastoses (P-388), extension of lifespan; format: in vivo, mice and rats
Hepatoma G-61 = experiment: Antitumor effect on grafted hepatoma G-61; format: in vivo, mice and rats
Lewis lung carcinoma LL = experiment: Antitumor effect on grafted Lewis lung carcinoma LL; format: in vivo, mice and rats
S-37 = experiment: Antitumor effect on grafted solid tumor S-37; format: in vivo, mice and rats
[1] = test system: Alveolar mammary cancer RMK-1; experiment: Antitumor effect on grafted alveolar mammary cancer RMK-1; format: in vivo, mice and rats
Hepatoma G-60 = experiment: Antitumor effect on grafted hepatoma G-60; format: in vivo, mice and rats
[2] = test system: Viral leukosis Mazurenko LMC-1; experiment: Antitumor effect on grafted hemoblastoses (LMC-1), extension of lifespan; format: in vivo, mice and rats; details: LMC-1; days 2-6 after grafting; effective dose range per compound, 24 h × 5
[3] = test system: adrenalectomized rat youngsters; experiment: Lifespan of adrenalectomized rat youngsters (biological test for the glucocorticoidal activity); format: in vivo; details: 25-days adrenalectomized rats
L 1210 = experiment: Antitumor effect on grafted hemoblastoses (L 1210), extension of lifespan; format: in vivo, mice and rats
Ca-755 = experiment: Antitumor effect on grafted solid tumor Ca-755; format: in vivo, mice and rats
[4] = test system: Large intestine adenocarcinoma AKATOL; experiment: Antitumor effect on grafted large intestine adenocarcinoma AKATOL; format: in vivo, mice and rats
MOPG-406 = experiment: Antitumor effect on grafted hemoblastoses (MOPC-406), extension of lifespan; format: in vivo, mice and rats
Hepatoma G-22c = experiment: Antitumor effect on grafted hepatoma G-22c; format: in vivo, mice and rats; details: G-22c; days 2-6; effective dose range per compound, 24 h × 5
in vivo = details: mouse
mice = details: mouse, in vivo
La = test system: La; set-up: species or system mice and rats; details: in vivo
S-180 = test system: S-180; set-up: species or system mice and rats; details: in vivo
[5] = cited from earlier work

## CC1(C)O[C@@H]2C[C@H]3[C@@H]4CCC5=CC(=O)C=C[C@]5(C)[C@@]4(F)[C@@H](O)C[C@]3(C)[C@]2(C(=O)COC(=O)N(CCCl)CCCl)O1 [9αF,11β,16α, 17α,26-tetraoxypregna-1,4-diene-3,20-dione-21-[bis-(2-chloroethyl)carbamate], 16,17-acetonide]
Mice fibroblasts L-929
  growth of cultures of mice fibroblasts L-929: inhibit growth of cultures of mice fibroblasts L-929
Cell receptors
  reaction with cell receptors: react with cell receptors

## C[C@]12CCC(=O)C=C1CC[C@@H]1[C@@H]2CC[C@@]2(C)[C@H]1CC[C@]2(O)C(=O)CO [11-Desoxy-17α-hydroxycorticosterone, 11-desoxy-17α-hydroxycorticosterone, reference compound]
P-388; P-388, days 2-6 after grafting, effective dose range per compound, 24 h × 5
  Extension of the lifespan of the animals (ELA): -7%
Hepatoma G-61; G-61, days 7-11, effective dose range per compound, 24 h × 5
  Maximum tumor growth inhibition: 37%
Lewis lung carcinoma LL; LL, days 2-6, effective dose range per compound, 24 h × 5
  Maximum tumor growth inhibition: 28%
S-37; S-37, days 2-6, effective dose range per compound, 24 h × 5
  Maximum tumor growth inhibition: 29%
[1]; RMK-1, days 3-7, effective dose range per compound, 24 h × 5, "+" = stimulation of tumor growth
  Maximum tumor growth inhibition: +4%
Hepatoma G-60; G-60, days 6-10, effective dose range per compound, 24 h × 5
  Maximum tumor growth inhibition: 38%
[2]
  Extension of the lifespan of the animals (ELA): 17%
[3]
  extension of lifespan of adrenalectomized rat youngsters: 115%
L 1210; L 1210, days 2-6 after grafting, effective dose range per compound, 24 h × 5
  Extension of the lifespan of the animals (ELA): 6%
Ca-755; Ca-755, days 2-6, effective dose range per compound, 24 h × 5, "+" = stimulation of tumor growth
  Maximum tumor growth inhibition: +105%
[4]; AKATOL, days 2-6, effective dose range per compound, 24 h × 5, "+" = stimulation of tumor growth
  Maximum tumor growth inhibition: +41%
MOPG-406; MOPG-406, days 2-6 after grafting, effective dose range per compound, 24 h × 5
  Extension of the lifespan of the animals (ELA): 0%
Hepatoma G-22c
  Maximum tumor growth inhibition: 3%

## C[C@]12CCC(=O)C=C1CC[C@@H]1[C@@H]2CC[C@@]2(C)[C@H]1CC[C@]2(O)C(=O)COC(=O)CCCc1ccc(N(CCCl)CCCl)cc1 [11-desoxy-17α-hydroxy-21-[p-di(2-chloroethyl)aminophenylbutyrate] corticosterone]
P-388; in vivo
  Extension of the lifespan of the animals (ELA): 82%
In vivo
  MTD: 350 mg/kg
mice
  toxicity (relative): even lower toxicity
L 1210; in vivo
  Extension of the lifespan of the animals (ELA): 20%
La
  Extension of the lifespan of the animals (ELA): 18%
MOPG-406; in vivo
  Extension of the lifespan of the animals (ELA): 70%

## C[C@]12CCC(=O)C=C1CC[C@@H]1[C@@H]2[C@@H](O)C[C@@]2(C)[C@H]1CC[C@]2(O)C(=O)COC(=O)N(CCCl)CCCl [11β,17α,21-trihydroxy-pregnene-4-3,20-dione-21-[bis(2-chloroethyl)carbamate]]
Mice fibroblasts L-929
  growth of cultures of mice fibroblasts L-929: inhibit growth of cultures of mice fibroblasts L-929
Cell receptors
  reaction with cell receptors: react with cell receptors

## O=C(O)CCCc1ccc(N(CCCl)CCCl)cc1 [Chlorambucyl, p-di-(2-chloroethyl)aminophenylbutyric acid, reference compound]
In vivo
  MTD: 25 mg/kg

## C[C@]12CC[C@@H]3c4ccc(OC(=O)N(CCCl)CCCl)cc4CC[C@H]3[C@@H]1CC[C@@H]2OP(=O)(O)O [Estracyte, estra-1,3,5-(10)treine-3,17β-diol-3N-[bis-(2-chloroethyl)carbamate-17-sodium phosphate, reference compound]
Lewis lung carcinoma LL; in vivo
  Maximum tumor growth inhibition: 29%
S-37; in vivo
  Maximum tumor growth inhibition: 85%
S-180
  Maximum tumor growth inhibition: +23%
Ca-755; in vivo
  Maximum tumor growth inhibition: +6%

## C[C@]12C=CC(=O)C=C1CC[C@@H]1[C@@H]2[C@@H](O)C[C@@]2(C)[C@H]1CC[C@]2(O)C(=O)COC(=O)CCCc1ccc(N(CCCl)CCCl)cc1 [Prednimustine, pregna-1,4-diene-3,20-dione, 11β17,21-trihydroxy-21-[p-di(2-chloroethyl)aminophenylbutyrate]]
[5]; in vivo
  hematotoxicity: Hematotoxicity usually limiting administration
[5]; oncological clinic
  side effects: associated mainly with hematotoxicity

## C[C@]12C=CC(=O)C=C1CC[C@@H]1[C@@H]2[C@@H](O)C[C@@]2(C)[C@H]1CC[C@]2(O)C(=O)CO [Prednisolone, pregnadiene-1,4-triol-11β,17α,21-dione-3,20, reference compound]
Hepatoma G-61; in vivo
  Maximum tumor growth inhibition: 44%
Lewis lung carcinoma LL; in vivo
  Maximum tumor growth inhibition: 30%
S-37; in vivo
  Maximum tumor growth inhibition: 44%
Ca-755; in vivo
  Maximum tumor growth inhibition: 70%
[4]; in vivo
  Maximum tumor growth inhibition: 67%

## NC(Cc1ccc(N(CCCl)CCCl)cc1)C(=O)O (stereo not drawn) [Sarcolysine, β-[p-di(2-chloroethyl)aminophenyl]-α-alanine hydrochloride, reference compound]
Hepatoma G-61; in vivo
  Maximum tumor growth inhibition: 87%
Lewis lung carcinoma LL; in vivo
  Maximum tumor growth inhibition: 58%
S-37; in vivo
  Maximum tumor growth inhibition: 95%
[1]; in vivo
  Maximum tumor growth inhibition: +86%
Hepatoma G-60; in vivo
  Maximum tumor growth inhibition: 90%
S-180
  Maximum tumor growth inhibition: 76%
Ca-755; in vivo
  Maximum tumor growth inhibition: 83%
[4]; in vivo
  Maximum tumor growth inhibition: 56%
